In brackets after ≈: the same amount, converted by molar mass. Activity calls are given as the source filed them. No cut-off for these calls is given here.
What was measured:
Escherichia coli [1] = assay: Antibacterial activity against mucosa-associated Escherichia coli isolates isolated from patients with Crohn's disease by disk diffusion method; format: functional
Escherichia coli [2] = assay: Antibacterial activity against Escherichia coli isolate HM605 isolated from colonic mucosal biopsies of patient with Crohn's disease after 24 hrs by Etest antibiotic concentration gradient method; format: functional; details: isolate HM605, 24 h
Escherichia coli [3] = assay: Antibacterial activity against Escherichia coli ATCC 25922 after 24 hrs by Etest antibiotic concentration gradient method; format: functional, organism-based
Escherichia coli [4] = assay: Antibacterial activity against Escherichia coli isolate HM605 isolated from colonic mucosal biopsies of patient with Crohn's disease
Escherichia coli [5] = assay: Antibacterial activity against gentamicin-treated internalized Escherichia coli isolate HM605 isolated from colonic mucosal biopsies of patient with Crohn's disease in mouse J774A1 cells assessed as intracellular killing of bacteria at 3.2 ug/ml after 3 hrs; format: functional, J774.A1
Escherichia coli [6] = assay: Antibacterial activity against extracellular Escherichia coli isolate HM605 isolated from colonic mucosal biopsies of patient with Crohn's disease at 0.1 to 100 ug/ml after 3 hrs; format: functional, organism-based
Escherichia coli [7] = assay: Antibacterial activity against gentamicin-treated internalized Escherichia coli isolate HM605 in mouse J774A1 cells isolated from colonic mucosal biopsies of patient with Crohn's disease assessed as intracellular killing of bacteria at 0.1 to 100 ug/ml after 3 hrs; format: functional, organism-based; details: J774.A1
Escherichia coli [8] = assay: Antibacterial activity against gentamicin-treated internalized Escherichia coli isolate HM605 in mouse J774A1 cells isolated from colonic mucosal biopsies of patient with Crohn's disease assessed as intracellular killing of bacteria at 0.1 to 100 ug/ml after 6 hrs; format: functional, organism-based; details: J774.A1
Escherichia coli [9] = assay: Antibacterial activity against gentamicin-treated internalized Escherichia coli isolate HM605 in mouse J774A1 cells isolated from colonic mucosal biopsies of patient with Crohn's disease assessed as intracellular killing of bacteria at 0.1 to 100 ug/ml after 24 hrs; format: functional, organism-based; details: J774.A1
Escherichia coli [10] = assay: Antibacterial activity against Escherichia coli isolate HM605 isolated from colonic mucosal biopsies of patient with Crohn's disease assessed as killing of bacteria at 100 ug/ml; format: functional
Escherichia coli [11] = assay: Antibacterial activity against extracellular Escherichia coli isolate HM605 isolated from colonic mucosal biopsies of patient with Crohn's disease at 0.01 to 10 ug/ml after 3 hrs; format: functional, organism-based
Escherichia coli [12] = assay: Antibacterial activity against extracellular Escherichia coli isolate HM605 isolated from colonic mucosal biopsies of patient with Crohn's disease assessed as colony count at 0.1 to 100 ug/ml after 3 hrs; format: functional, organism-based
Escherichia coli [13] = assay: Antibacterial activity against gentamicin-treated internalized Escherichia coli isolate HM605 in mouse J774A1 cells isolated from colonic mucosal biopsies of patient with Crohn's disease assessed as intracellular killing of bacteria at 10% compound Cmax after 3 hrs; format: functional, J774.A1
Escherichia coli [14] = assay: Antibacterial activity against gentamicin-treated internalized Escherichia coli isolate LF82 in mouse J774A1 cells isolated from chronic ileal lesions of patient with Crohn's disease assessed as intracellular killing of bacteria at 10% compound Cmax after 3 hrs; format: functional, J774.A1
Escherichia coli [15] = assay: Antibacterial activity against gentamicin-treated internalized Escherichia coli isolate HM580 in mouse J774A1 cells isolated from colonic mucosal biopsies of patient with Crohn's disease assessed as intracellular killing of bacteria at 10% compound Cmax after 3 hrs; format: functional, J774.A1
Escherichia coli [16] = assay: Antibacterial activity against gentamicin-treated internalized Escherichia coli isolate HM615 in mouse J774A1 cells isolated from colonic mucosal biopsies of patient with Crohn's disease assessed as intracellular killing of bacteria at 10% compound Cmax after 3 hrs; format: functional, J774.A1
J774.A1 [17] = assay: Cytotoxicity against mouse J774A1 cells assessed as release of adenylate kinase at 100 ug/ml after 3 hrs […] relative to control; format: cell-based; details: j774.a1, 3 h
[18] = Cmax in healthy human at 500 mg administered orally; format: ADME, organism-based; design: dose 500 mg, route oral; details: in vivo, po
Escherichia coli [19] = assay: Antibacterial activity against Escherichia coli isolates isolated from patients with Crohn's disease at 15 ug/disk by susceptibility testing disk method; format: functional
Escherichia coli [20] = assay: Antibacterial activity against Escherichia coli isolate HM154 isolated from colonic mucosal biopsies of patient with Crohn's disease after 24 hrs by Etest antibiotic concentration gradient method; format: functional; details: isolate HM154, 24 h
Escherichia coli [21] = assay: Antibacterial activity against Escherichia coli isolate HM580 isolated from colonic mucosal biopsies of patient with Crohn's disease after 24 hrs by Etest antibiotic concentration gradient method; format: functional; details: isolate HM580, 24 h
Escherichia coli [22] = assay: Antibacterial activity against gentamicin-treated internalized Escherichia coli isolate HM605 isolated from colonic mucosal biopsies of patient with Crohn's disease in mouse J774A1 cells assessed as intracellular killing of bacteria at 0.4 ug/ml after 3 hrs; format: functional, J774.A1
Escherichia coli [23] = assay: Antibacterial activity against Escherichia coli isolate HM615 isolated from colonic mucosal biopsies of patient with Crohn's disease after 24 hrs by Etest antibiotic concentration gradient method; format: functional; details: isolate HM615, 24 h
Escherichia coli [24] = assay: Antibacterial activity Escherichia coli isolate HM413 isolated from ileo-colonic mucosal biopsies of patient with Crohn's disease after 24 hrs by Etest antibiotic concentration gradient method; format: functional; details: isolate HM413, 24 h
Escherichia coli [25] = assay: Antibacterial activity Escherichia coli isolate HM419 isolated from ileo-colonic mucosal biopsies of patient with Crohn's disease after 24 hrs by Etest antibiotic concentration gradient method; format: functional; details: isolate HM419, 24 h
Escherichia coli [26] = assay: Antibacterial activity against Escherichia coli isolate HM95 isolated from ileal mucosal biopsies of patient with Crohn's disease after 24 hrs by Etest antibiotic concentration gradient method; format: functional; details: isolate HM95, 24 h
Escherichia coli [27] = assay: Antibacterial activity against mucosa-associated Escherichia coli isolate HM428 isolated from patient with irritable bowel syndrome or sporadic polyps after 24 hrs by Etest antibiotic concentration gradient method; format: functional; details: isolate HM428, 24 h
Escherichia coli [28] = assay: Antibacterial activity against mucosa-associated Escherichia coli isolate HM454 isolated from patient with irritable bowel syndrome or sporadic polyps after 24 hrs by Etest antibiotic concentration gradient method; format: functional; details: isolate HM454, 24 h
Escherichia coli [29] = assay: Antibacterial activity against mucosa-associated Escherichia coli isolate HM456 isolated from patient with irritable bowel syndrome or sporadic polyps after 24 hrs by Etest antibiotic concentration gradient method; format: functional; details: isolate HM456, 24 h
[30] = Cmax in patient with Crohn's disease at 500 mg administered orally; format: ADME, organism-based; design: dose 500 mg, route oral; details: human, in vivo, po
Escherichia coli [31] = assay: Antibacterial activity against Escherichia coli isolates isolated from patients with Crohn's disease at 5 ug/disk by susceptibility testing disk method; format: functional
Escherichia coli [32] = assay: Antibacterial activity against gentamicin-treated internalized Escherichia coli isolate HM605 isolated from colonic mucosal biopsies of patient with Crohn's disease in mouse J774A1 cells assessed as intracellular killing of bacteria at 3 ug/ml after 3 hrs; format: functional, J774.A1
J774.A1 [33] = assay: Cytotoxicity against mouse J774A1 cells assessed as macrophage number at 3 ug/ml after 3 hrs by total cell protein assay; format: cell-based; details: j774.a1, 3 h
Escherichia coli [34] = assay: Antibacterial activity against Escherichia coli K-12 after 24 hrs by Etest antibiotic concentration gradient method; format: functional; details: K-12, 24 h

Row | Structure (SMILES) | MIC (Escherichia coli [2]) | Cmax [18] | MIC (Escherichia coli [20]) | MIC (Escherichia coli [21]) | MIC (Escherichia coli [23]) | MIC (Escherichia coli [24]) | MIC (Escherichia coli [25]) | MIC (Escherichia coli [26]) | Activity (Escherichia coli [1]) | MBC (Escherichia coli [4]) | Activity (Escherichia coli [11]) | Activity (Escherichia coli [13]) | Activity (Escherichia coli [14]) | Activity (Escherichia coli [15]) | Activity (Escherichia coli [16]) | Activity (J774.A1 [17]) | MIC (Escherichia coli [27]) | MIC (Escherichia coli [28]) | MIC (Escherichia coli [29]) | further results
1 | O=C(N[C@H](CO)[C@H](O)c1ccc([N+](=O)[O-])cc1)C(Cl)Cl [CHLORAMPHENICOL] | – | – | – | – | – | – | – | – | 62% | – | – | – | – | – | – | 90% | – | – | – | –
2 | CCn1cc(C(=O)O)c(=O)c2ccc(C)nc21 [NALIDIXIC ACID] | – | – | – | – | – | – | – | – | 100% | – | – | – | – | – | – | 90% | – | – | – | –
3 | CC1(C)S[C@@H]2[C@H](NC(=O)Cc3ccccc3)C(=O)N2[C@H]1C(=O)O [PENICILLIN G] | – | – | – | – | – | – | – | – | 0% | – | – | – | – | – | – | 90% | – | – | – | –

Continued, in another order:

Row | MIC (Escherichia coli [2]) | Cmax [18] | MIC (Escherichia coli [20]) | MIC (Escherichia coli [21]) | MIC (Escherichia coli [23]) | MIC (Escherichia coli [24]) | MIC (Escherichia coli [25]) | MIC (Escherichia coli [26]) | Structure (SMILES) | Activity (Escherichia coli [1]) | MBC (Escherichia coli [4]) | Activity (Escherichia coli [11]) | Activity (Escherichia coli [13]) | Activity (Escherichia coli [14]) | Activity (Escherichia coli [15]) | Activity (Escherichia coli [16]) | Activity (J774.A1 [17]) | MIC (Escherichia coli [27]) | MIC (Escherichia coli [28]) | MIC (Escherichia coli [29]) | further results
4 | > 256 µg/mL | 3200 ng/mL | – | – | – | – | – | – | CC1(C)S[C@@H]2[C@H](NC(=O)[C@H](N)c3ccccc3)C(=O)N2[C@H]1C(=O)O [AMPICILLIN] | 95% | > 100 µg/mL | Active | 20.4% | 10.9% | 9.6% | 13.8% | 90% | – | – | – | Activity (Escherichia coli [3]): Active; Activity (Escherichia coli [5]): 11.1%; Activity (Escherichia coli [6]): Active; Activity (Escherichia coli [7]): inactive; Activity (Escherichia coli [8]): inactive; Activity (Escherichia coli [9]): inactive; Activity (Escherichia coli [10]): 99.8%; Activity (Escherichia coli [12]): Active
5 | 3 µg/mL (≈ 4.01 µM) | – | ≤ 2 µg/mL | ≤ 2 µg/mL | ≤ 2 µg/mL | ≤ 2 µg/mL | ≤ 2 µg/mL | ≤ 2 µg/mL | CC[C@H]1OC(=O)[C@H](C)[C@@H](O[C@H]2C[C@@](C)(OC)[C@@H](O)[C@H](C)O2)[C@H](C)[C@@H](O[C@@H]2O[C@H](C)C[C@H](N(C)C)[C@H]2O)[C@](C)(O)C[C@@H](C)CN(C)[C@H](C)[C@@H](O)[C@]1(C)O [AZITHROMYCIN] | – | 5 µg/mL (≈ 6.68 µM) | Active | – | – | – | – | 90% | ≤ 2 µg/mL | ≤ 2 µg/mL | ≤ 2 µg/mL | Activity (Escherichia coli [19]): 78%; Activity (Escherichia coli [22]): 41%; Cmax [30]: 400 ng/mL
6 | 16 µg/mL (≈ 21.4 µM) | 3000 ng/mL | ≥ 16 µg/mL | ≥ 16 µg/mL | ≥ 16 µg/mL | ≥ 16 µg/mL | ≥ 16 µg/mL | ≥ 16 µg/mL | CC[C@H]1OC(=O)[C@H](C)[C@@H](O[C@H]2C[C@@](C)(OC)[C@@H](O)[C@H](C)O2)[C@H](C)[C@@H](O[C@@H]2O[C@H](C)C[C@H](N(C)C)[C@H]2O)[C@](C)(OC)C[C@@H](C)C(=O)[C@H](C)[C@@H](O)[C@]1(C)O [CLARITHROMYCIN] | – | 3 µg/mL (≈ 4.01 µM) | Active | 33.5% | 55.2% | 57.5% | 81.8% | 90% | ≥ 16 µg/mL | ≥ 16 µg/mL | ≥ 16 µg/mL | Activity (Escherichia coli [31]): 0%; Activity (Escherichia coli [32]): 62.1%; Activity (J774.A1 [33]): 73.4; MIC (Escherichia coli [34]): 24 µg/mL (≈ 32.1 µM)
